According to ChEMBL document CHEMBL1212725, “Enzymatic transition states and dynamic motion in barrier crossing” (Nat Chem Biol, 2009):
Each block holds one molecule with its values, some of them ahead of it.

Columns and labels:
[1] = molecular target: T1, Purine nucleoside phosphorylase (Homo sapiens) (UniProt P00491); experiment: Binding affinity to human PNP assessed as kinetic isotope effect; conditions: tested as the 3H-labelled form
T1 sequence (whole entry): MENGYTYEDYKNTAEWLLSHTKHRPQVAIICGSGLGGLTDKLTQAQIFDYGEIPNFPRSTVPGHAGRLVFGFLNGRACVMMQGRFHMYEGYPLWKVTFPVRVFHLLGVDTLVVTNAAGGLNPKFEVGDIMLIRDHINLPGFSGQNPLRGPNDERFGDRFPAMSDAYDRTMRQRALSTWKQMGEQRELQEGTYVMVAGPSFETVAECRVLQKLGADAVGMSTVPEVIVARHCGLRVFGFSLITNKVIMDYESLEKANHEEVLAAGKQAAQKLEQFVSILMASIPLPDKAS

[2] = molecular target: T2, Purine nucleoside phosphorylase (Homo sapiens, UniProt P00491); experiment: Binding affinity to human PNP
T2 sequence (P00491 whole entry): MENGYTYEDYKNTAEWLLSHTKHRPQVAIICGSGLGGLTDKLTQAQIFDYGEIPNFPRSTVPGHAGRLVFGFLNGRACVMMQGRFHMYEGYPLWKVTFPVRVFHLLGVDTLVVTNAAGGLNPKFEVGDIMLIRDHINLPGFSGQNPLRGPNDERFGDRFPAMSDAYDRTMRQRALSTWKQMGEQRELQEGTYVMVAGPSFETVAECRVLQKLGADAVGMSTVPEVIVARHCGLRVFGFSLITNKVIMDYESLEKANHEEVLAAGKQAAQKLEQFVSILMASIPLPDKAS

[3] = substrate: O=c1[nH]cnc2c1ncn2[C@@H]1O[C@H](CO)[C@@H](O)[C@H]1O; experiment: Activity at human PNP

- Activity [1]: 4.7%
Molecule: O=c1[nH]cnc2c1ncn2[C@@H]1O[C@H](CO)[C@@H](O)[C@H]1O

Molecule: [3H]C(O)[C@H]1CN(Cc2c[nH]c3c(=O)[nH]cnc23)C[C@@H]1O (stereo partly drawn)
- Kd [2]: 8.5 pM

B1: Purine nucleoside phosphorylase (Homo sapiens), P00491 (protein)
chain: MENGYTYEDYKNTAEWLLSHTKHRPQVAIICGSGLGGLTDKLTQAQIFDYGEIPNFPRSTVPGHAGRLVFGFLNGRACVMMQGRFHMYEGYPLWKVTFPVRVFHLLGVDTLVVTNAAGGLNPKFEVGDIMLIRDHINLPGFSGQNPLRGPNDERFGDRFPAMSDAYDRTMRQRALSTWKQMGEQRELQEGTYVMVAGPSFETVAECRVLQKLGADAVGMSTVPEVIVARHCGLRVFGFSLITNKVIMDYESLEKANHEEVLAAGKQAAQKLEQFVSILMASIPLPDKAS
- Km [3]: 40 µM
